Results as given in patent publication US11680047B2, “Enhanced erythropoiesis and iron metabolism” (FibroGen, Inc., priority 2003, dated 2023).

Tests used:
Assay type in all cases: cell-based, human
[1] = tested on: Transferrin Receptor (TFR2); assay: Microarray gene expression in Hep3B cells: transferrin receptor 2; settings: 2 μM
Protocol: (§1) Hep3B cells (ATCC No. HB-8064) were grown in DMEM containing 8% fetal bovine serum. Hep3B cells were seeded into 6-well culture dishes at ˜500,000 cells per well. After 8 hours, the media was changed to DMEM containing 0.5% fetal bovine serum and the cells were incubated for an additional 16 hours. Compound B or compound D was added to the cells (2 μM final concentration) and the cells were incubated for various times. Control cells (no compound treatment, addition of DMSO alone) were harvested at 0, 6 and 48 hours. Harvested cells were assessed for cell viability (GUAVA), or added to RNA extraction buffer (RNeasy, Qiagen) and stored at −20° C. for subsequent RNA purification. Replicate microarrays were generated using RNA isolated from replicate experiments conducted on different days. Total RNA was isolated from cells using the RNeasy kit (Qiagen).
(§2) RNA was precipitated in 0.3 M sodium acetate (pH 5.2), 50 ng/ml glycogen, and 2.5 volumes of ethanol for one hour at −20° C. Samples were centrifuged and pellets were washed with cold 80% ethanol, dried, and resuspend in water. Double stranded cDNA was synthesized using a T7-(dT)24 first strand primer (Affymetrix, Inc., Santa Clara Calif.) and the SUPERSCRIPT CHOICE system (Invitrogen) according to the manufacturer's instructions. The final cDNA was extracted with an equal volume of 25:24:1 phenol:chloroform:isoamyl alcohol using a PHASE LOCK GEL insert (Brinkman, Inc., Westbury N.Y.). The aqueous phase was collected and cDNA was precipitated using 0.5 volumes of 7.5 M ammonium acetate and 2.5 volumes of ethanol. Alternatively, cDNA was purified using the GENECHIP sample cleanup module (Affymetrix) according to the manufacturer's instructions.
(§3) Biotin-labeled cRNA was synthesized from the cDNA in an in vitro […] (IVT) reaction using a BIOARRAY HighYield RNA transcript labeling kit (Enzo Diagnostics, Inc., Farmingdale N.Y.) according to the manufacturer's instructions. Final labeled product was purified and fragmented using the GENECHIP sample cleanup module (Affymetrix) according to the manufacturer's instructions.
(§4) Hybridization cocktail was prepared by bringing […] probe to […] in 1× hybridization buffer (100 mM MES, 1 M [Na^+], 20 mM EDTA, 0.01% Tween 20), 100 µg/ml herring sperm DNA, 500 µg/ml acetylated BSA, 0.03 nM contol oligo B2 (Affymetrix), and 1×GENECHIP eukaryotic hybridization control (Affymetrix). The cocktail was sequentially incubated at 99° C. for 5 minutes and 45° C. for 5 minutes, and then centrifuged for 5 minutes. The Human Genome U133A array (Affymetrix) was brought to room temperature and then prehybridized with 1× hybridization buffer at 45° C. for 10 minutes with rotation. The buffer was then replaced with […] hybridization cocktail and the array was hybridized for 16 hours at 45° C. at 60 rpm with counter balance. Following hybridization, arrays were washed once with 6×SSPE, 0.1% Tween 20, and then washed and stained using R-phycoerythrin-conjugated streptavidin (Molecular Probes, Eugene Oreg.), goat anti-streptavidin antibody (Vector Laboratories, Burlingame Calif.), and a GENECHIP Fluidics Station 400 instrument (Affymetrix) according to the manufacturer's micro_1v1 protocol (Affymetrix). Arrays were analyzed using a GENEARRAY scanner (Affymetrix) and Microarray Suite software (Affymetrix).
(§5) The Human Genome U133A array (Affymetrix) represents all sequences in the Human Unigene database build 133 (National Center for Biotechnology Information, Bethesda Md.), including approximately 14,500 well-characterized human genes.
(§6) RNA quality was monitored by capillary electrophoresis (Agilent Bioanalyzer). Hybridization cocktails were prepared as described (Affymetrix), and hybridized to Affymetrix human U133A arrays containing 22,283 probe sets. Array performance was analyzed with Affymetrix MicroArray Suite (MAS) software and individual probe sets were assigned “present”, “marginal, and “absent” calls according to software defaults. […]

E-selectin = assay: TNF-α induced E-selectin expression in HUVEC; settings: 1 ng/ml TNF-α, various concentrations, 1 day
Excerpt: Endothelial E-selectin belongs to the selectin family of cellular adhesion molecules mediating the initial attachment of leukocytes to vascular endothelial cells in inflammatory events. IL-1β, TNF-α, and lipopolysaccharides each induce the expression of E-selectin. (See, e.g., Bevilacqua et al. (1987) Proc Natl Acad Sci USA 84:9238-9242 and Bevilacqua and van Furth (1993) J Leukoc Biol 54:363-378.) To investigate the effect of HIF prolyl hydroxylase inhibition on TNF-α induced E-selectin expression, HUVECs were stimulated with 1 ng/ml TNF-α in the absence or presence of various concentrations of compound B or compound C for 1 day. E-selectin and VCAM expression were then measured.

Ceruloplasmin (CP) = assay: Microarray gene expression in Hep3B cells: ceruloplasmin; settings: 2 μM
Protocol: as §1, §2, §3, §4, §5, §6

## O=C(O)CNC(=O)c1ncc2cc(Oc3ccccc3)ccc2c1O [Compound B, [(4-Hydroxy-7-phenoxy-isoquinoline-3-carbonyl)-amino]-acetic acid]
[1]; 1 hr
  Transferrin Receptor (TFR2) fold-increase in mRNA levels above control: 0.575 fold
[1]; 3 hr
  Transferrin Receptor (TFR2) fold-increase in mRNA levels above control: 0.558 fold
[1]; 6 hr
  Transferrin Receptor (TFR2) fold-increase in mRNA levels above control: 0.822 fold
[1]; 12 hr
  Transferrin Receptor (TFR2) fold-increase in mRNA levels above control: 1.253 fold
[1]; 24 hr
  Transferrin Receptor (TFR2) fold-increase in mRNA levels above control: 2.522 fold
[1]; 48 hr
  Transferrin Receptor (TFR2) fold-increase in mRNA levels above control: 4.169 fold
E-selectin
  inhibition of TNF-α induced E-selectin expression: dose-dependent inhibition of TNF-α induced VCAM and E-selectin expression
Ceruloplasmin (CP); 1 hr
  Ceruloplasmin (CP) fold-increase in mRNA levels above control, first data point: 1.142 fold
  Ceruloplasmin (CP) fold-increase in mRNA levels above control, second data point: 0.946 fold
Ceruloplasmin (CP); 3 hr
  Ceruloplasmin (CP) fold-increase in mRNA levels above control, first data point: 1.123 fold
  Ceruloplasmin (CP) fold-increase in mRNA levels above control, second data point: 0.955 fold
Ceruloplasmin (CP); 6 hr
  Ceruloplasmin (CP) fold-increase in mRNA levels above control, first data point: 1.555 fold
  Ceruloplasmin (CP) fold-increase in mRNA levels above control, second data point: 1.103 fold
Ceruloplasmin (CP); 12 hr
  Ceruloplasmin (CP) fold-increase in mRNA levels above control, first data point: 2.366 fold
  Ceruloplasmin (CP) fold-increase in mRNA levels above control, second data point: 2.507 fold
Ceruloplasmin (CP); 24 hr
  Ceruloplasmin (CP) fold-increase in mRNA levels above control, first data point: 5.136 fold
  Ceruloplasmin (CP) fold-increase in mRNA levels above control, second data point: 4.909 fold
Ceruloplasmin (CP); 48 hr
  Ceruloplasmin (CP) fold-increase in mRNA levels above control, first data point: 5.82 fold
  Ceruloplasmin (CP) fold-increase in mRNA levels above control, second data point: 4.678 fold
